# Legend:
# [1] = target: T1, MLLT1 (Homo sapiens, UniProt Q03111); experiment: MLLT1 degradation assay in MV4-11 cells (JESS chemiluminescent detection), three concentrations, 24 h; format: cell-based; details: with respect to DMSO control
# T1 construct: host or cells: MV4-11
# T1 sequence (Q03111 1-559): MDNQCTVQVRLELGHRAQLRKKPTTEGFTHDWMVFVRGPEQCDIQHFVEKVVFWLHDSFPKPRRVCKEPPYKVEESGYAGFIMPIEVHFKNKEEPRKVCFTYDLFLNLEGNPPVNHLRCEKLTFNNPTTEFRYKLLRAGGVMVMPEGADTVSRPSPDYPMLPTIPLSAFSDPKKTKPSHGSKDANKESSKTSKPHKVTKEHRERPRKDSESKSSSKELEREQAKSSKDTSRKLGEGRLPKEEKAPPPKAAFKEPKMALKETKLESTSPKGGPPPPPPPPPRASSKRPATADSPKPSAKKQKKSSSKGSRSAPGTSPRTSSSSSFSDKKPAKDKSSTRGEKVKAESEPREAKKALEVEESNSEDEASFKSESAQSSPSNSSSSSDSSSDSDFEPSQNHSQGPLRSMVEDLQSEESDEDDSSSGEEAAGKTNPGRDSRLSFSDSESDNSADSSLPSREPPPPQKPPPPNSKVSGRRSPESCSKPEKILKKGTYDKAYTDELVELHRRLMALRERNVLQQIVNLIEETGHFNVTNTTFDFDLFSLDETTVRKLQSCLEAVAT
# Outline: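 MV4-11 cells treated 24 h at 37° C, 5% CO2 with 1000, 100 and 10 nM compound (0.1% DMSO final). MLLT1 quantified by automated capillary chemiluminescent immunodetection; band peak area expressed as % degradation relative to DMSO control.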
# [2] = tested on: MV4-11 cells; experiment: MV4-11 cellular proliferative assay, Assay Format B (CTG 2.0, 168 h); format: cell-based; details: Homo sapiens, 168 h (7 days), CTG 2.0, read-out: IC50 (MV4-11 cellular proliferative assay, Assay format B)
# Description: MV4-11 cells at a confluency of ~50-80% was used for cell growth assay. 600 cells/well in a 384-well opaque cell culture plate (6007680; Perkin Elmer) were seeded in 40 μL of complete medium (IMDM+10% FBS+1X Penicillin-Streptomycin). Cells were incubated overnight at 37° C., 5% CO2. 10 mM DMSO stocks were prepared, cells were treated with 10 concentrations of test compounds starting from 1 uM or 100 nM, 3-fold dilution in 10 uL (5×concentration) of complete medium. Final DMSO concentration was 0.3%. Culture plates were centrifuged at 40×g, 30s. Cells were incubated with compounds for 168 h (7 days). After 7 days, 20 uL CTG 2.0 reagent (G9242; Promega) was added per well and luminescence reading was taken in Envision Xcite 2105 multimode plate reader. Data was analyzed in GraphPad Prism 10.0 and data was shown as % viability with respect to DMSO control and dose-response curves were generated using four parameter logistic regression. Assay quality was determined by z-factor calculation using positive and negative controls.
MLLT1% Degradation @ 0.1 μM [1],MLLT1% Degradation @ 1 μM [1],IC50 [2] [nM],SMILES,MLLT1% Degradation @ 0.01 μM [1]
A (Category A: A ≥ 75% degradation),A (Category A: A ≥ 75% degradation),≤ 100,"Cc1cc(C2CCN(c3ccc(C(=O)Nc4cc5[nH]c([C@H]6CCCN6C)cc5cn4)cn3)CC2)ccc1-c1cccc2c1CN(C1CCC(=O)NC1=O)C2=O (stereo partly drawn) [Example 99, 6-(4-(4-(2-(2,6-dioxopiperidin-3-yl)-1-oxoisoindolin-4-yl)-3-methylphenyl)piperidin-1-yl)-N-(2-((R)-1-methylpyrrolidin-2-yl)-1H-pyrrolo[3,2-c]pyridin-6-yl)nicotinamide]",B (Category B: 50% ≤ B < 75% degradation)
A (Category A: A ≥ 75% degradation),A (Category A: A ≥ 75% degradation),≤ 100,"CN1CCC[C@@H]1c1cc2cnc(NC(=O)c3ccc(OCCCC4CCN(c5cccc6c5CN(C5CCC(=O)NC5=O)C6=O)CC4)cc3F)cc2[nH]1 (stereo partly drawn) [Example 209, 4-(3-(1-(2-(2,6-dioxopiperidin-3-yl)-1-oxoisoindolin-4-yl)piperidin-4-yl)propoxy)-2-fluoro-N-(2-((R)-1-methylpyrrolidin-2-yl)-1H-pyrrolo[3,2-c]pyridin-6-yl)benzamide]",A (Category A: A ≥ 75% degradation)
A (Category A: A ≥ 75% degradation),A (Category A: A ≥ 75% degradation),≤ 100,"CN1CCC[C@@H]1c1cc2cnc(NC(=O)c3ccc(C4CCN(C(=O)CC5CCN(c6cccc7c6CN(C6CCC(=O)NC6=O)C7=O)CC5)CC4)cc3)cc2[nH]1 (stereo partly drawn) [Example 107, 4-(1-(2-(1-(2-(2,6-dioxopiperidin-3-yl)-1-oxoisoindolin-4-yl)piperidin-4-yl)acetyl)piperidin-4-yl)-N-(2-((R)-1-methylpyrrolidin-2-yl)-1H-pyrrolo[3,2-c]pyridin-6-yl)benzamide]",B (Category B: 50% ≤ B < 75% degradation)
A (Category A: A ≥ 75% degradation),A (Category A: A ≥ 75% degradation),≤ 100,"CN1CCC[C@@H]1c1[nH]c2cc(NC(=O)c3ccc(CCCCC#Cc4cccc5c4CN(C4CCC(=O)NC4=O)C5=O)cc3F)ncc2c1Cl (stereo partly drawn) [Example 113, N-(3-chloro-2-((R)-1-methylpyrrolidin-2-yl)-1H-pyrrolo[3,2-c]pyridin-6-yl)-4-(6-(2-(2,6-dioxopiperidin-3-yl)-1-oxoisoindolin-4-yl)hex-5-yn-1-yl)-2-fluorobenzamide]",A (Category A: A ≥ 75% degradation)
A (Category A: A ≥ 75% degradation),A (Category A: A ≥ 75% degradation),≤ 100,"CN1CCC[C@@H]1c1[nH]c2cc(NC(=O)c3ccc(OCCC4CCN(c5cccc6c5CN(C5CCC(=O)NC5=O)C6=O)CC4)cc3F)ncc2c1Cl (stereo partly drawn) [Example 190, N-(3-chloro-2-((R)-1-methylpyrrolidin-2-yl)-1H-pyrrolo[3,2-c]pyridin-6-yl)-4-(2-(1-(2-(2,6-dioxopiperidin-3-yl)-1-oxoisoindolin-4-yl)piperidin-4-yl)ethoxy)-2-fluorobenzamide]",B (Category B: 50% ≤ B < 75% degradation)
A (Category A: A ≥ 75% degradation),A (Category A: A ≥ 75% degradation),≤ 100,"CN1CCC[C@@H]1c1cc2cnc(NC(=O)c3ccc(CN4CCN(CC5CCN(c6cccc7c6CN(C6CCC(=O)NC6=O)C7=O)CC5)CC4)cc3)cc2[nH]1 (stereo partly drawn) [Example 194, 4-((4-((1-(2-(2,6-dioxopiperidin-3-yl)-1-oxoisoindolin-4-yl)piperidin-4-yl)methyl)piperazin-1-yl)methyl)-N-(2-((R)-1-methylpyrrolidin-2-yl)-1H-pyrrolo[3,2-c]pyridin-6-yl)benzamide]",B (Category B: 50% ≤ B < 75% degradation)
A (Category A: A ≥ 75% degradation),A (Category A: A ≥ 75% degradation),≤ 100,"CN1CCC[C@@H]1c1[nH]c2cc(NC(=O)CCCCCCC#Cc3cccc4c3CN(C3CCC(=O)NC3=O)C4=O)ncc2c1Cl (stereo partly drawn) [Example 13, N-(3-chloro-2-((R)-1-methylpyrrolidin-2-yl)-1H-pyrrolo[3,2-c]pyridin-6-yl)-9-(2-(2,6-dioxopiperidin-3-yl)-1-oxoisoindolin-4-yl) non-8-ynamide]",A (Category A: A ≥ 75% degradation)
A (Category A: A ≥ 75% degradation),A (Category A: A ≥ 75% degradation),≤ 100,"CN1CCC[C@@H]1c1cc2cnc(NC(=O)c3ccc(CCCC4CCN(c5cccc6c5CN([C@@H]5CCC(=O)NC5=O)C6=O)CC4)cc3F)cc2[nH]1 (relative stereo) [Example 176, 4-(3-(1-(2-((rel-R)-2,6-dioxopiperidin-3-yl)-1-oxoisoindolin-4-yl)piperidin-4-yl)propyl)-2-fluoro-N-(2-((R)-1-methylpyrrolidin-2-yl)-1H-pyrrolo[3,2-c]pyridin-6-yl)benzamide]",A (Category A: A ≥ 75% degradation)

SMILES,MLLT1% Degradation @ 0.1 μM [1],MLLT1% Degradation @ 1 μM [1],IC50 [2] [nM],MLLT1% Degradation @ 0.01 μM [1]
"CN1CCC[C@@H]1c1cc2cnc(NC(=O)c3ccc(N4CCN(CC5CCN(c6cccc7c6CN([C@H]6CCC(=O)NC6=O)C7=O)CC5)CC4)cc3)cc2[nH]1 (relative stereo) [Example 117, 4-(4-((1-(2-((rel-S)-2,6-dioxopiperidin-3-yl)-1-oxoisoindolin-4-yl)piperidin-4-yl)methyl)piperazin-1-yl)-N-(2-((R)-1-methylpyrrolidin-2-yl)-1H-pyrrolo[3,2-c]pyridin-6-yl)benzamide]",A (Category A: A ≥ 75% degradation),B (Category B: 50% ≤ B < 75% degradation),≤ 100,B (Category B: 50% ≤ B < 75% degradation)
"CN1CCC[C@@H]1c1cc2cnc(NC(=O)c3ccc(OCCC4CCN(c5ccc6c(c5)C(=O)N(C5CCC(=O)NC5=O)C6=O)CC4)cc3)cc2[nH]1 (stereo partly drawn) [Example 83, 4-(2-(1-(2-(2,6-dioxopiperidin-3-yl)-1,3-dioxoisoindolin-5-yl)piperidin-4-yl)ethoxy)-N-(2-((R)-1-methylpyrrolidin-2-yl)-1H-pyrrolo[3,2-c]pyridin-6-yl)benzamide]",A (Category A: A ≥ 75% degradation),B (Category B: 50% ≤ B < 75% degradation),≤ 100,A (Category A: A ≥ 75% degradation)
"C[C@H]1CN(CC2CCN(c3cccc4c3CN(C3CCC(=O)NC3=O)C4=O)CC2)CCN1c1ccc(C(=O)Nc2cc3[nH]c([C@H]4CCCN4C)cc3cn2)cc1 (stereo partly drawn) [Example 132, 4-((2S)-4-((1-(2-(2,6-dioxopiperidin-3-yl)-1-oxoisoindolin-4-yl)piperidin-4-yl)methyl)-2-methylpiperazin-1-yl)-N-(2-((R)-1-methylpyrrolidin-2-yl)-1H-pyrrolo[3,2-c]pyridin-6-yl)benzamide]",A (Category A: A ≥ 75% degradation),B (Category B: 50% ≤ B < 75% degradation),≤ 100,B (Category B: 50% ≤ B < 75% degradation)
"CN1CCC[C@@H]1c1cc2cnc(NC(=O)c3ccc(N4CCC(OCc5ccc(-c6cccc7c6CN(C6CCC(=O)NC6=O)C7=O)cc5)CC4)cc3)cc2[nH]1 (stereo partly drawn) [Example 85, 4-(4-((4-(2-(2,6-dioxopiperidin-3-yl)-1-oxoisoindolin-4-yl)benzyl)oxy)piperidin-1-yl)-N-(2-((R)-1-methylpyrrolidin-2-yl)-1H-pyrrolo[3,2-c]pyridin-6-yl)benzamide]",A (Category A: A ≥ 75% degradation),B (Category B: 50% ≤ B < 75% degradation),≤ 100,C (Category C: 25% ≤ C < 50% degradation)
